Assay results: PubChem BioAssay AID2060883 (Molecular Pharmacology Branch, DTP, NCI, 2025)

Tested on: 843782-103-R-J1-PDC complex spheroid viability
Test: Anticancer human tumor 843782-103-R-J1-PDC patient-derived lung adenocarcinoma cell line growth inhibition [RAS]
Settings: for viability, T/C: stronger effect = lower value; active means viability on the fitted dose curve at most 10% of control; inactive means the rest
Outline: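 Agents were tested in combination matrices in half-log decrements from a top concentration at or near clinical Cmax (10 microM if undetermined). Targets were multi-cell spheroids of tumour lines plus HUVEC and MSC stromal cells.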
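Further: viability read after seven days of compound exposure.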

CC(C)n1nc(-c2ccc3oc(N)nc3c2)c2c(N)ncnc21 + C#Cc1c(F)ccc2cc(O)cc(-c3ncc4c(N5CC6CCC(C5)N6)nc(OCC56CCCN5CC(F)C6)nc4c3F)c12
0.000794 µM: IC50 (curve of first compound, second compound 10 µM)
0.0244 µM: IC50 (curve of first compound, second compound 0.1 µM)
0.0383 µM: IC50 (curve of first compound, second compound 0.0316 µM)
inactive: viability, T/C (second compound 0.0316 µM, first compound 0.000316 µM) 108% | viability, T/C (second compound 0.0316 µM, first compound 0.001 µM) 93.9% | viability, T/C (second compound 0.0316 µM, first compound 0.00316 µM) 97.5% | viability, T/C (second compound 0.0316 µM, first compound 0.01 µM) 70.8% | viability, T/C (second compound 0.0316 µM, first compound 0.0316 µM) 55.1% | viability, T/C (second compound 0.0316 µM, first compound 0.1 µM) 31.2% | viability, T/C (second compound 0.1 µM, first compound 0.000316 µM) 105% | viability, T/C (second compound 0.1 µM, first compound 0.001 µM) 95.7% | viability, T/C (second compound 0.1 µM, first compound 0.00316 µM) 93.8% | viability, T/C (second compound 0.1 µM, first compound 0.01 µM) 72.5% | viability, T/C (second compound 0.1 µM, first compound 0.0316 µM) 42.8% | viability, T/C (second compound 0.1 µM, first compound 0.1 µM) 29.8% | viability, T/C (second compound 0.316 µM, first compound 0.000316 µM) 101% | viability, T/C (second compound 0.316 µM, first compound 0.001 µM) 91.2% | viability, T/C (second compound 0.316 µM, first compound 0.00316 µM) 91.2% | viability, T/C (second compound 0.316 µM, first compound 0.01 µM) 66.3% | viability, T/C (second compound 0.316 µM, first compound 0.0316 µM) 40.6% | viability, T/C (second compound 0.316 µM, first compound 0.1 µM) 26% | viability, T/C (second compound 1 µM, first compound 0.000316 µM) 99.7% | viability, T/C (second compound 1 µM, first compound 0.001 µM) 87.8% | viability, T/C (second compound 1 µM, first compound 0.00316 µM) 81.7% | viability, T/C (second compound 1 µM, first compound 0.01 µM) 62.1% | viability, T/C (second compound 1 µM, first compound 0.0316 µM) 39.6% | viability, T/C (second compound 1 µM, first compound 0.1 µM) 21.8% | viability, T/C (second compound 3.16 µM, first compound 0.000316 µM) 93% | viability, T/C (second compound 3.16 µM, first compound 0.001 µM) 70% | viability, T/C (second compound 3.16 µM, first compound 0.00316 µM) 71.8% | viability, T/C (second compound 3.16 µM, first compound 0.01 µM) 39.1% | viability, T/C (second compound 3.16 µM, first compound 0.0316 µM) 25.3% | viability, T/C (second compound 3.16 µM, first compound 0.1 µM) 19.4% | viability, T/C (second compound 10 µM, first compound 0.000316 µM) 63.3% | viability, T/C (second compound 10 µM, first compound 0.001 µM) 41% | viability, T/C (second compound 10 µM, first compound 0.00316 µM) 38.5% | viability, T/C (second compound 10 µM, first compound 0.01 µM) 28% | viability, T/C (second compound 10 µM, first compound 0.0316 µM) 18.8% | viability, T/C (second compound 10 µM, first compound 0.1 µM) 10.6%
0.0208 µM: IC50 (curve of first compound, second compound 0.316 µM)
0.00661 µM: IC50 (curve of first compound, second compound 3.16 µM)
0.0189 µM: IC50 (curve of first compound, second compound 1 µM)

CC(C)n1nc(-c2ccc3oc(N)nc3c2)c2c(N)ncnc21
31.2 nM [middle of 4 runs]: IC50 (curve of compound)
inactive: viability, T/C (compound 0.000316 µM) 108% [middle of 4 runs] | viability, T/C (compound 0.001 µM) 94% [middle of 4 runs] | viability, T/C (compound 0.00316 µM) 91.6% [middle of 4 runs] | viability, T/C (compound 0.01 µM) 72.3% [middle of 4 runs] | viability, T/C (compound 0.0316 µM) 48.1% [middle of 4 runs] | viability, T/C (compound 0.1 µM) 28.8% [middle of 4 runs]
